# Assay results as given in patent US12616759B2, “Uses of labeled HSP90 inhibitors” (Sloan-Kettering Institute for Cancer Research, priority 2011, dated 2026).
# What was measured:
# AML cell lines = assay: apoptosis in AML cell lines, acridine orange/ethidium bromide; type: cell-based, human
# Procedure: (§1) Apoptosis Assay: Cells were treated for 24, 48 or 72 h with vehicle (DMSO) or inhibitors as indicated. Following staining with Acridine Orange and Ethidium Bromide (1:1 mix of 100 µg/ml), cells were visualized with a fluorescent microscope (Zeiss Axiovert 40 CFL) and counted. Percentage of apoptotic cells was determined from 200-300 cells counted in each group. The percentage of apoptotic cells was calculated as: % Apoptotic cells=(total number of cells with apoptotic nuclei/total number of cells counted)×100.
# [1] = system: FL5.12 mAKT-transfected cells; assay: apoptosis in mAKT-transfected FL5.12 cells; type: cell-based
# Source text: FL5.12 was derived as an interleukin-3 (IL-3)-dependent cell line with a functional JAK/STAT pathway and it has characteristic features of an early lymphocytic progenitor. Both the parental cells and the transfected cells express moderate-levels of active AKT and STAT5, as evidenced by AKT phosphorylation on Ser473 and STAT5 phosphorylation on Tyr694, respectively. The level of p-STAT5 but not p-AKT is dependent on the presence of IL-3. Introduction of a constitutively activated, myristoylated form of AKT (mAKT) under the control of a doxycycline (DOX)-inducible promoter further allows for the regulation of p-AKT levels in these cells. All together, these cells are a good isogenic model to evaluate the dependence of HSP90 inhibitor apoptotic sensitivity on activated AKT and STAT5-pathways.
# Cells: Kasumi-1, SKNO-1, MOLM-13, MO-91, HEL, HL-60, THP-1, MV4-11 were grown in RPMI media supplemented with 10 mM HEPES, 4.5 g/L glucose, 1.5 g/L sodium bicarbonate, 1 mM sodium pyruvate, 10% FBS, and 1% penicillin/streptomycin. The stable transfectants of FL5.12 were previously described (18-Karnauskas 2003). In brief, for the generation of FL5.mAKT the myristylated AKT was cloned in the doxycycline inducible vector pRevTRE (Clontech) (this clone is designated mAKT). As a control, cell were transfected with vector alone (this clone is designated Vector). For generation of FL5.mAkt.Bcl-xL, the human Bcl-xL cDNA was cloned into the EcoRI site of the pBabePuro vector, and transfected into FL5.mAkt3 as described (18) (this clone is designated mAKT.Bcl-xL). These lines were cultured as described previously using DME-HG media supplemented with 10 mM HEPES, 10% FBS media containing 1 mg/ml Geneticin (G418) (Sigma #G9516) and 1 or 2 ng/mL of IL-3 (RD Systems #403 ML).
# as §1
# Western blot: Cells were grown to 60-70% confluence and treated with inhibitor or vehicle for the indicated times. Protein lysates were prepared in 50 mM Tris pH 7.4, 150 mM NaCl and 1% NP-40 lysis buffer. Protein concentrations were measured using the BCA kit (Pierce) according to the manufacturer's instructions. Protein lysates (10-100 μg) were resolved by SDS-PAGE, transferred onto nitrocellulose membrane and incubated with the indicated primary antibodies. […]
# HSP90 [2] = assay: concomitant HSP90-streptavidin binding in live K562 cells; type: cell-based; conditions: for HSP90-streptavidin binding with K562 cells: live cells
# Source text: Having shown that some of the molecules bind concomitantly to HSP90 and streptavidin, we next investigated whether this can similarly be accomplished in live cells.
# HSP90 [3] = assay: concomitant binding to HSP90 and streptavidin, K562 lysate; conditions: 100 μM; for HSP90-streptavidin binding with K562 lysate: streptavidin beads, overnight; for band at approximately 90 kDa, concomitant binding to HSP90 and streptavidin: K562 lysate, SDS-PAGE
# Procedure: Having shown that each of the prepared biotinylated molecules retain good affinity to HSP90 we next wanted to determine whether the chain length was sufficient to maintain concomitant binding to HSP90 and streptavidin. […] Following sufficient washing to remove any unbound material, the remaining bead pellet was analyzed by SDS-PAGE. The gel was washed and stained with coomasie blue for 1 h.
# HSP90 [4] = assay: fluorescence polarization HSP90 binding assay using SKBr3 cancer cell lysate; conditions: fluorescence polarization
# lung and bone metastases = assay: response of breast cancer patient to STA9090 by CT and FDG-PET; type: in vivo, human; conditions: triple-negative breast cancer patient
# Procedure: FIGS. 28A, 28B, 28C, and 28D. A triple-negative breast cancer patient was imaged with ^124I-PU-H71 PET. At 20 min post-injection, uptake is noted in a lung mass (left arrow), and a bone lesion (right arrow) FIG. 28A, but at 24 h uptake is seen only in the lung lesion FIG. 28B. Both the lung and bone tumors are confirmed by CT and FDG-scans FIG. 28C. The patient started treatment with the HSP90 inhibitor STA-9090.
# In another aspect of the present invention, patients who are identified as being candidates for HSP90 therapy are treated with a pharmaceutically effective amount of an HSP90 inhibitor. We have determined that cancer patients that are determined to be candidates to HSP90 inhibition therapy respond highly favorably to HSP90 inhibition therapy. If a patient has multiple tumors, then only those tumors with a sufficient avidity for the radiolabeled HSP90 inhibitor are expected to respond to HSP90 inhibition therapy. […] Similar results were obtained in patients with lymphoma, pancreatic cancer and neuroblastoma patients.
Structure (SMILES),HSP90-streptavidin binding with K562 lysate (HSP90 [3]),"band at approximately 90 kDa, concomitant binding to HSP90 and streptavidin (HSP90 [3])",EC50 (HSP90 [4]) [nM],"HSP90-streptavidin binding with K562 cells (HSP90 [2]; 100 μM, 4 h)","binding in live K562 cells (HSP90 [2]; 100 μM, 4 h)",also measured
"O=c1[nH]c2ccccc2n1C1CCN(Cc2ccc(-c3nc4cc5[nH]cnc5cc4nc3-c3ccccc3)cc2)CC1 [AKTi, reference compound]",–,–,–,–,–,effect on apoptosis (AML cell lines; HEL cells in culture): little to no effect; apoptotic cells ([1]; AKT activity increased by DOX): 30%; apoptotic cells ([1]; without DOX): 15-20%
"COc1cccc(-c2cc(=O)c3ccccc3o2)c1N [MEKi, reference compound]",–,–,–,–,–,"induction of apoptosis (AML cell lines; 24, 48 and 72 h): Modest or little induction of apoptosis"
Nc1ncnc2c1nc(Sc1cc3c(cc1I)OCO3)n2CCCNC(=O)CCCC[C@@H]1SC[C@@H]2NC(=O)N[C@@H]21 [PU-H71-biotin3],No,did not show a band at 90 kDa,44.3,No,–,–
CC(C)N(CCCn1c(Sc2cc3c(cc2I)OCO3)nc2c(N)ncnc21)C(=O)CCCCCNC(=O)CCCC[C@@H]1SC[C@@H]2NC(=O)N[C@@H]21 [PU-H71-biotin7],No,did not show a band at 90 kDa,72.8,No,–,–
CC(C)N(CCCn1c(Sc2cc3c(cc2I)OCO3)nc2c(N)ncnc21)C(=O)CCCCCNC(=O)CCCCCNC(=O)CCCC[C@@H]1SC[C@@H]2NC(=O)N[C@@H]21 [PU-H71-biotin8],Yes,show a band at approximately 90 kDa,76.9,Yes,are able to permeate the cell membrane,–
CC(C)c1cc(-c2n[nH]c(=O)n2-c2ccc3c(ccn3C)c2)c(O)cc1O [STA9090],–,–,–,–,–,tumor response (lung and bone metastases): early partial response was demonstrated by FDG PET-CT studies in the lung mass but not in the spinal lesion; tumor response (lung and bone metastases; listed as STA-9090): the lung but not the bone lesion is remarkably reduced in size

# Continued, in another order:
HSP90-streptavidin binding with K562 lysate (HSP90 [3]),"band at approximately 90 kDa, concomitant binding to HSP90 and streptavidin (HSP90 [3])",EC50 (HSP90 [4]) [nM],Structure (SMILES),"HSP90-streptavidin binding with K562 cells (HSP90 [2]; 100 μM, 4 h)","binding in live K562 cells (HSP90 [2]; 100 μM, 4 h)",also measured
No,did not show a band at 90 kDa,154,CC(C)N(CCCn1c(Sc2cc3c(cc2I)OCO3)nc2c(N)ncnc21)C(=O)CCCC[C@@H]1SC[C@@H]2NC(=O)N[C@@H]21 [PU-H71-biotin2],No,–,–
No,did not show a band at 90 kDa,34.8,Nc1ncnc2c1nc(Sc1cc3c(cc1I)OCO3)n2CCCNC(=O)CCCCCNC(=O)CCCC[C@@H]1SC[C@@H]2NC(=O)N[C@@H]21 [PU-H71-biotin4],No,–,–
Yes,show a band at approximately 90 kDa,31.4,Nc1ncnc2c1nc(Sc1cc3c(cc1I)OCO3)n2CCCNC(=O)CCCCCNC(=O)CCCCCNC(=O)CCCC[C@@H]1SC[C@@H]2NC(=O)N[C@@H]21 [PU-H71-biotin5],Yes,are able to permeate the cell membrane,–
Yes,show a band at approximately 90 kDa,66.2,Nc1ncnc2c1nc(Sc1cc3c(cc1I)OCO3)n2CCCNC(=O)CCOCCOCCOCCOCCNC(=O)CCCC[C@@H]1SC[C@@H]2NC(=O)N[C@@H]21 [PU-H71-biotin6],Yes,are able to permeate the cell membrane,band at approximately 90 kDa (HSP90 [2]; 0.5 μM): still shows a faint band; binding in live K562 cells (HSP90 [2]; 10 μM): maintain good binding; band at approximately 90 kDa (HSP90 [2]; lowest concentration 1 μM): a faint band is still present
Yes,show a band at approximately 90 kDa,110,CC(C)N(CCCn1c(Sc2cc3c(cc2I)OCO3)nc2c(N)ncnc21)C(=O)CCOCCOCCOCCOCCNC(=O)CCCC[C@@H]1SC[C@@H]2NC(=O)N[C@@H]21 [PU-H71-biotin9],Yes,are able to permeate the cell membrane,binding in live K562 cells (HSP90 [2]; 10 μM): maintain good binding; band at approximately 90 kDa (HSP90 [2]; lowest concentration 1 μM): a faint band is still present
Yes,show a band at approximately 90 kDa,58.9,Nc1ncnc2c1nc(Sc1cc3c(cc1I)OCO3)n2CCCNCCOCCOCCOCCNC(=O)CCCC[C@@H]1SC[C@@H]2NC(=O)N[C@@H]21 [PU-H71-biotin],No,failed to maintain binding in live cells,–
